Measured values reported in US20250042929A1, “NEW CRYSTAL FORM OF TRISACCHARIDE” (SHANDONG HENGLU BIOTECH. CO., LTD., priority 2022, published 2025).

Key:
Assay type in all cases: physicochemical
[1] = Hygroscopicity study in constant temperature and humidity chamber; conditions: for Moisture rate: Example 9, after 5 days; for Added weight: about 1 g sample; for Before the experiment, appearance: before placing in chamber
Protocol: • Step 1: Preparation of glass petri dishes
One day before the experiment, place glass petri dishes (without lids) in a constant temperature and humidity chamber set at 25±1° C. and 75±2% relative humidity for 4 hours. Take out the dishes, accurately weigh, and repeat until consistent weight readings are obtained. Record the data in Table 3. • Step 2: Weigh the amorphous LNTII powder and LNTII crystalline form A from Example 1 separately, place them in the pre-weighed petri dishes from Step 1 in a constant temperature and humidity chamber set at 25° C. and 75% relative humidity. After 5 days, examine any physical changes, reweigh the samples, and calculate their hygroscopicity. Record the results in Tables 2 and 3. A comparison of the physical appearances before and after moisture exposure are depicted in FIG. 5 and FIG. 6.
Replicating the procedure outlined in Example 8, evaluate the LNTII crystalline form A samples obtained from Examples 1-7. Place the samples in pre-weighed petri dishes within a constant temperature and humidity chamber at 25° C. and 75% relative humidity. After 5 days, inspect for any changes in appearance, weigh the samples, and calculate their hygroscopicity. Document the findings in Table 4.

[2] = Stability study, sealed in aluminum-plastic composite film, 40° C. and 75% relative humidity
Protocol: In this invention, the quantification of LNTII is performed using high-performance liquid chromatography (HPLC) under the conditions listed below:
Chromatographic column: Asahipak NH2P-504E, 4.6 mm×250 mm, 5 μm particle size; mobile phase composition: acetonitrile to water in a ratio of 65:35; flow rate: 1 mL/min; detection method: UV-VIS detector; wavelength: 210 nm; column temperature: 30° C.; injection volume: 10 μL; total run time: 30 minutes.
Separately weigh 10 g of amorphous LNTII powder produced in Examples 1-7. Seal each sample with aluminum-plastic composite film. Store all samples in a constant temperature and humidity chamber at 40° C. and 75% relative humidity. Retrieve samples at the end of January, February, and March to assess the LNTII content and observe any changes in appearance. Record the outcomes in Table 5.

[3] = as above; conditions: 3 months
[4] = End of 1 month, 40° C., 75% relative humidity, HPLC
[5] = End of 2 months, 40° C., 75% relative humidity, HPLC
[6] = End of 3 months, 40° C., 75% relative humidity, HPLC
[7] = Example 8, 25° C., 75% relative humidity, 5 days

CC(=O)NC1C(O)[C@H](O)C(CO)O[C@H]1OC1C(O)[C@H](O[C@H]2C(CO)OC(O)C(O)C2O)OC(CO)[C@@H]1O (stereo partly shown) [Example 1 Crystalline form A, Lacto-N-triose II]
Moisture rate ([1]; 25° C., 75% relative humidity): 12.87% | Content ([2]; Day 0, LNTII content by HPLC): 97.98% | Content [2, 4]: 98.02% | Content [2, 5]: 97.97% | Content [2, 6]: 97.96%

CC(=O)NC1C(O)[C@H](O)C(CO)O[C@H]1OC1C(O)[C@H](O[C@H]2C(CO)OC(O)C(O)C2O)OC(CO)[C@@H]1O (stereo partly shown) [Example 2 Crystalline form A, Lacto-N-triose II]
Moisture rate ([1]; 25° C., 75% relative humidity): 13.26% | Content ([2]; Day 0, LNTII content by HPLC): 98.18% | Content [2, 4]: 98.15% | Content [2, 5]: 98.22% | Content [2, 6]: 98.23%

CC(=O)NC1C(O)[C@H](O)C(CO)O[C@H]1OC1C(O)[C@H](O[C@H]2C(CO)OC(O)C(O)C2O)OC(CO)[C@@H]1O (stereo partly shown) [Example 3 Crystalline form A, Lacto-N-triose II]
Moisture rate ([1]; 25° C., 75% relative humidity): 14.09% | Content ([2]; Day 0, LNTII content by HPLC): 97.87% | Content [2, 4]: 97.90% | Content [2, 5]: 97.93% | Content [2, 6]: 97.88%

CC(=O)NC1C(O)[C@H](O)C(CO)O[C@H]1OC1C(O)[C@H](O[C@H]2C(CO)OC(O)C(O)C2O)OC(CO)[C@@H]1O (stereo partly shown) [Example 4 Crystalline form A, Lacto-N-triose II]
Moisture rate ([1]; 25° C., 75% relative humidity): 13.61% | Content ([2]; Day 0, LNTII content by HPLC): 92.30% | Content [2, 4]: 92.32% | Content [2, 5]: 92.33% | Content [2, 6]: 92.27%

CC(=O)NC1C(O)[C@H](O)C(CO)O[C@H]1OC1C(O)[C@H](O[C@H]2C(CO)OC(O)C(O)C2O)OC(CO)[C@@H]1O (stereo partly shown) [Example 5 Crystalline form A, Lacto-N-triose II]
Moisture rate ([1]; 25° C., 75% relative humidity): 13.79% | Content ([2]; Day 0, LNTII content by HPLC): 92.57% | Content [2, 4]: 92.61% | Content [2, 5]: 92.51% | Content [2, 6]: 92.64%

CC(=O)NC1C(O)[C@H](O)C(CO)O[C@H]1OC1C(O)[C@H](O[C@H]2C(CO)OC(O)C(O)C2O)OC(CO)[C@@H]1O (stereo partly shown) [Example 6 Crystalline form A, Lacto-N-triose II]
Moisture rate ([1]; 25° C., 75% relative humidity): 13.32% | Content ([2]; Day 0, LNTII content by HPLC): 91.98% | Content [2, 4]: 91.94% | Content [2, 5]: 91.84% | Content [2, 6]: 91.93%

CC(=O)NC1C(O)[C@H](O)C(CO)O[C@H]1OC1C(O)[C@H](O[C@H]2C(CO)OC(O)C(O)C2O)OC(CO)[C@@H]1O (stereo partly shown) [Example 7 Crystalline form A, Lacto-N-triose II]
Moisture rate ([1]; 25° C., 75% relative humidity): 12.74% | Content ([2]; Day 0, LNTII content by HPLC): 98.58% | Content [2, 4]: 98.56% | Content [2, 5]: 98.48% | Content [2, 6]: 98.56%

CC(=O)NC1C(O)[C@H](O)C(CO)O[C@H]1OC1C(O)[C@H](O[C@H]2C(CO)OC(O)C(O)C2O)OC(CO)[C@@H]1O (stereo partly shown) [LNTII amorphous powder, Lacto-N-triose II, reference compound]
Moisture rate (moisture absorption rate = added weight/sample weight × 100%) [1, 7]: 29.47% | Day 5, appearance ([1]; Example 8, 25° C., 75% relative humidity, 5 days, open petri dish): Light yellow, paste | Added weight [1, 7]: 0.2951 g | Before the experiment, appearance ([1]; Example 8): Off-white powder | Content ([2]; Day 0, LNTII content by HPLC, listed as Amorphous LNTII powder): 91.24% | Content ([2]; End of 1 month, 40° C., 75% relative humidity, HPLC, listed as Amorphous LNTII powder): 91.01% | Content ([2]; End of 2 months, 40° C., 75% relative humidity, HPLC, listed as Amorphous LNTII powder): 90.86% | Content ([2]; End of 3 months, 40° C., 75% relative humidity, HPLC, listed as Amorphous LNTII powder): 90.01% | Content and appearance throughout the stability study, in words ([3]; listed as amorphous LNTII powder): decreases the content and the color gradually fades to pale yellow

CC(=O)NC1C(O)[C@H](O)C(CO)O[C@H]1OC1C(O)[C@H](O[C@H]2C(CO)OC(O)C(O)C2O)OC(CO)[C@@H]1O (stereo partly shown) [LNTII form A, Lacto-N-triose II]
Stability (from appearance changes and hygroscopicity results), in words ([1]; 25° C., 75% relative humidity, 5 days, crystalline form A compared with amorphous powder): superior to the amorphous powder | Moisture rate (moisture absorption rate = added weight/sample weight × 100%) [1, 7]: 14.17% | Added weight [1, 7]: 0.1418 g | Before the experiment, appearance ([1]; Example 8): Off-white | Content and appearance throughout the stability study, in words ([3]; listed as LNTII crystalline form A): maintains its content and appearance throughout the stability study
